# Assay results taken from patent US6586425B2, “Cytoskeletal active agents for glaucoma therapy” (Wisconsin Alumni Research Foundation, priority 1996, dated 2003).
# Read-outs that look alike come from different tables or passages of the source.
# Columns and labels:
# living monkey eyes [1] = test: Intraocular pressure by Goldmann applanation tonometry; type: in vivo, cynomolgus monkeys (Macaca fascicularis); conditions: for time to IOP reduction after administration: living monkeys, topical
# Experimental: The intraocular pressure (IOP) was determined with a “minified” Goldmann applanation tonometer (Kaufman and Davis, Arch. Ophthalmol., 98:542-546[1980]), using “Half and Half®” creamer solution (Borden) as the tear film indicator (Croft et al., in Lakshminarayanan (ed.), Basic and Clinical Applications of Vision Science, Dordtecht, Kluwer, [1997], pp. 213-216), with the monkey lying prone in a head holder and the eyes positioned 4 to 8 cm above the heart. All monkeys were examined by slit-lamp before the first IOP measurement in each protocol. For each eye, two or three IOP measurements were averaged as a baseline.
# After baseline IOP was measured, 21 or 42 μg LAT-A or 4 μg LAT-B were administered to the central cornea of supine monkeys in one eye and the vehicle to the opposite eye. Blinking was prevented with lid speculums during and for 5 min. after drug administration (taking care to avoid touching the globe), to maximize drug penetration into the AC and minimize systemic absorption. Following drug administration, the speculums were gently removed and the monkeys were kept in the supine position for another 15 min to further facilitate penetration of drug/vehicle solution into the AC. For LAT-A, IOP was then measured every hr for 7 to 9 hr beginning 1, 6, or 15 hr after the 21 gg dose, or beginning 1 or 6 hr after the 42 μg dose, and again at 24 hr. Each protocol included two groups of monkeys. Group one (6 monkeys) underwent IOP measurement from 1-9 hr and again at 24 hr after the drug; group two (6 monkeys) were measured from 6-13 hr for both doses and again from 15 hr-21 hr on a separate occasion for the 21 μg dose. For both doses, one monkey in group one was used again in group two; therefore its two readings measured at baseline or the period 6-9 hr after the drug on the two different occasions was averaged for data analysis. Thus, “n” for baseline and the period 6-9 hr post-drug is 11 rather than 12. During intervals between the post-drug reading at 9 hr and that at 24 hr for group one or between the drug administration and the first post-drug reading at 6 hr for group two, the animals were returned to the Animal Care Unit for recovery. For LAT-B, IOP was measured every hr for 6 hr beginning 1 hr after the 4 μg dose, and again at 24 hr. The animals were returned to the Animal Care Unit for recovery between the measurements at 6 hr and 24 hr. Anterior segments were examined by slit-lamp at 3, 6, 10 or 24 hr after LAT-A, or at 1, 3, 6 or 24 hr after LAT-B.
# living monkey eyes [2] = test: Slit lamp biomicroscopy (ocular tolerability); type: in vivo, cynomolgus monkeys (Macaca fascicularis); conditions: for lens appearance: after topical drug; for corneal epithelium at slit lamp: topical LAT-A (21 or 42 μg) or LAT-B (4 μg) in 25% DMSO; for eyes that developed flare (1-2+ on a scale of 0-4+): topical, recovered by 24-48 hr
# Experimental: e) Ocular Tolerability/Toxicity: Ocular exams, including slit lamp biomicroscopy (Zeiss or Haag-Streit), gonioscopy, and binocular indirect ophthalmoscopy (American Optical or Keeler), were performed by a trained ophthalmologist, using when necessary contact lenses specially fabricated for the small monkey eye (Kaufman and Wallow, Exp. Eye Res., 40:883-885[1985]). In addition, specular microscopy was used to evaluate drug effects on the corneal endothelium.
# The AC of both eyes of was cannulated with a branched needle as above, after which baseline facility measurements were taken for 35-45 min. With reservoirs closed, 2×5 μl drops of 200 μM (˜0.8 μg) or 4×5 μl drops of 500 μM (˜4.0 μg) LAT-B were given to one eye of the prone monkey, allowing 60-90 sec between drops. […] Vehicle (10 or 25% DMSO respectively) was given simultaneously to the opposite eye in a similar manner. The doses were chosen to give […] and 1 μM LAT-B concentrations respectively in the 100 μl monkey AC (See e.g., Erickson-Lamy et al., Arch. Opthalmol., 102:1815-1820[1984]), assuming 1% penetration and no initial drug loss from the AC (Asseff et al., Amer. J. Ophthalmol., 75:212-215[1973]; Harris, in Leopold (ed.), Symposium on Ocular Therapy, C. V. Mosby, St. Louis, Mo., [1968], pp. 96-105; Janes and Stiles, Arch. Ophthahnol., 62:69-74[1959]). The perfusion system remained closed for 2 hr, after which facility measurements were taken for 90 min. Biomicroscopy was performed by an ophthalmologist before and 3, 7 and 14 days after drug administration.
# For slit lamp biomicroscopy, a trained ophthalmologist examined all eyes by slit lamp, for integrity of the corneal epithelium and endothelium, presence of flare or cells in the anterior chamber and clarity of the lens. All animals were free of ocular abnormalities when studied.
# corneal endothelium = conditions: for Cell count Exp, drug eye / Cell count Exp, drug/Vehicle / Cell count Exp, drug−Vehicle / Cell count Exp/BL, drug eye / Cell count Exp/BL, drug/Vehicle / Cell count Exp/BL, drug−Vehicle: n=4
# living monkey eyes [3] = test: Slit lamp biomicroscopy (ocular tolerability); type: in vivo, cynomolgus monkeys (Macaca fascicularis); conditions: for corneal endothelial cell borders: one to 5 hr after topical drug
structure (smiles),measurement,setting,value
C/C1=C/C(=O)O[C@@H]2C[C@@H](CC[C@H](C)/C=C\C=C\CC1)O[C@@](O)([C@@H]1CSC(=O)N1)C2 [LAT-A],period of lowered IOP after drug administration,living monkey eyes [1]; 21 μg LAT-A topical,5 to 10 h
same,maximal IOP decrease below baseline,"living monkey eyes [1]; 21 μg LAT-A topical, at 8 hr, n=11",3.48±1.29 mmHg
same,period of lowered IOP after drug administration,living monkey eyes [1]; 42 μg LAT-A topical,6 to 13 h
same,maximal IOP reduction below baseline,"living monkey eyes [1]; 42 μg LAT-A topical, at 9 hr, n=11",4.60±1.61 mmHg
same,time to IOP reduction after administration,living monkey eyes [1],6 h
same,lens appearance,living monkey eyes [2],always appeared normal
same,corneal epithelium at slit lamp,living monkey eyes [2],mild transient corneal epithelial cloudiness
same,eyes that developed flare (1-2+ on a scale of 0-4+),living monkey eyes [2],Four LAT-A- treated eyes
same,"Cell count Exp, drug eye","corneal endothelium; 21 μg LAT-A topical, 3 days",2488 ± 63 cell per square millimeter
same,"Cell count Exp, drug/Vehicle","corneal endothelium; 21 μg LAT-A topical, 3 days",1.02 ± 0.03
same,"Cell count Exp, drug−Vehicle","corneal endothelium; 21 μg LAT-A topical, 3 days",44 ± 62 cell per square millimeter
same,"Cell count Exp/BL, drug eye","corneal endothelium; 21 μg LAT-A topical, 3 days",0.98 ± 0.01
same,"Cell count Exp/BL, drug/Vehicle","corneal endothelium; 21 μg LAT-A topical, 3 days",1.06 ± 0.02
same,"Cell count Exp/BL, drug−Vehicle","corneal endothelium; 21 μg LAT-A topical, 3 days",0.05 ± 0.10
same,"Cell count Exp, drug eye","corneal endothelium; 21 μg LAT-A topical, 7 days",2488 ± 97 cell per square millimeter
same,"Cell count Exp, drug/Vehicle","corneal endothelium; 21 μg LAT-A topical, 7 days",0.98 ± 0.06
same,"Cell count Exp, drug−Vehicle","corneal endothelium; 21 μg LAT-A topical, 7 days",−69 ± 140 cell per square millimeter
same,"Cell count Exp/BL, drug eye","corneal endothelium; 21 μg LAT-A topical, 7 days",0.98 ± 0.03
same,"Cell count Exp/BL, drug/Vehicle","corneal endothelium; 21 μg LAT-A topical, 7 days",1.02 ± 0.08
same,"Cell count Exp/BL, drug−Vehicle","corneal endothelium; 21 μg LAT-A topical, 7 days",0.01 ± 0.07
same,"Cell count Exp, drug eye","corneal endothelium; 21 μg LAT-A topical, 14 days",2694 ± 28 cell per square millimeter
same,"Cell count Exp, drug/Vehicle","corneal endothelium; 21 μg LAT-A topical, 14 days",1.01 ± 0.06
same,"Cell count Exp, drug−Vehicle","corneal endothelium; 21 μg LAT-A topical, 14 days",0 ± 147 cell per square millimeter
same,"Cell count Exp/BL, drug eye","corneal endothelium; 21 μg LAT-A topical, 14 days",1.06 ± 0.03
same,"Cell count Exp/BL, drug/Vehicle","corneal endothelium; 21 μg LAT-A topical, 14 days",1.04 ± 0.03
same,"Cell count Exp/BL, drug−Vehicle","corneal endothelium; 21 μg LAT-A topical, 14 days",0.04 ± 0.03
same,cell densities vs baseline,"corneal endothelium; 21 μg LAT-A, day 3",essentially the same as at baseline
same,cell densities vs baseline or contralateral eyes,"corneal endothelium; 42 μg LAT-A, day 3",slightly (but not significantly) lower cell densities than baseline or contralateral eyes
same,cell density and morphology,"corneal endothelium; LAT-A either dose, day 7",cell density and morphology had returned to baseline
same,countability of corneal endothelial cells,"corneal endothelium; either dose of LAT-A (21 or 42 μg), 1 or 3 hr",could not be counted
same,recovery of endothelial refractile spots,living monkey eyes [3]; higher dose of LAT-A (42 μg),most recovered by 10 hr
same,recovery of endothelial refractile spots,living monkey eyes [3]; lower dose of LAT-A (21 μg),recovered almost completely by 6 hr
same,corneal endothelial cell borders,living monkey eyes [3],indistinct
C/C1=C/C(=O)O[C@@H]2C[C@@H](CC[C@H](C)/C=C\CC1)O[C@@](O)([C@@H]1CSC(=O)N1)C2 [LAT-B],"maximal IOP reduction, adjusted for baseline and contralateral control eyes","living monkey eyes [1]; 4 μg LAT-B topical, 6 hr, n=8",3.1±1.2 mmHg
same,IOP,"living monkey eyes [1]; 4 μg LAT-B topical, at 6 hr (from 17 mmHg)",13.5 mmHg
same,IOP,"living monkey eyes [1]; 4 μg LAT-B topical, within 1 hr (from 17 mmHg)",15 mmHg
same,time to IOP reduction after administration,living monkey eyes [1],≤ 1 h
same,recovery of corneal endothelium,living monkey eyes [2]; 4 μg LAT-B,"by 6 hr, the corneal endothelium of almost all treated eyes had recovered"
same,biomicroscopy findings,"living monkey eyes [2]; LAT-B 0.8 μg topical, 3 days after drug and AC perfusion",no adverse effects
same,biomicroscopy findings,"living monkey eyes [2]; LAT-B 4.0 μg topical, day 3 after perfusion",two drug-treated eyes exhibited a small clot of blood in the AC
same,biomicroscopy findings,"living monkey eyes [2]; LAT-B topical, day 7",all eyes appeared biomicroscopically normal
same,lens appearance,living monkey eyes [2],always appeared normal
same,corneal epithelium at slit lamp,living monkey eyes [2],mild transient corneal epithelial cloudiness
same,eyes that developed flare (1-2+ on a scale of 0-4+),living monkey eyes [2],one LAT-B-treated eye
same,"Cell count Exp, drug eye","corneal endothelium; 42 μg LAT-A topical, 3 days",2188 ± 430 cell per square millimeter
same,"Cell count Exp, drug/Vehicle","corneal endothelium; 42 μg LAT-A topical, 3 days",0.86 ± 0.11
same,"Cell count Exp, drug−Vehicle","corneal endothelium; 42 μg LAT-A topical, 3 days",−281 ± 248 cell per square millimeter
same,"Cell count Exp/BL, drug eye","corneal endothelium; 42 μg LAT-A topical, 3 days",0.83 ± 0.14
same,"Cell count Exp/BL, drug/Vehicle","corneal endothelium; 42 μg LAT-A topical, 3 days",0.80 ± 0.11
same,"Cell count Exp/BL, drug−Vehicle","corneal endothelium; 42 μg LAT-A topical, 3 days",−0.18 ± 0.10
same,"Cell count Exp, drug eye","corneal endothelium; 42 μg LAT-A topical, 7 days",2494 ± 166 cell per square millimeter
same,"Cell count Exp, drug/Vehicle","corneal endothelium; 42 μg LAT-A topical, 7 days",1.04 ± 0.03
same,"Cell count Exp, drug−Vehicle","corneal endothelium; 42 μg LAT-A topical, 7 days",94 ± 68 cell per square millimeter
same,"Cell count Exp/BL, drug eye","corneal endothelium; 42 μg LAT-A topical, 7 days",0.94 ± 0.04
same,"Cell count Exp/BL, drug/Vehicle","corneal endothelium; 42 μg LAT-A topical, 7 days",0.96 ± 0.02
same,"Cell count Exp/BL, drug−Vehicle","corneal endothelium; 42 μg LAT-A topical, 7 days",−0.04 ± 0.02
same,"Cell count Exp, drug eye","corneal endothelium; 42 μg LAT-A topical, 14 days",2581 ± 143 cell per square millimeter
same,"Cell count Exp, drug/Vehicle","corneal endothelium; 42 μg LAT-A topical, 14 days",1.03 ± 0.05
same,"Cell count Exp, drug−Vehicle","corneal endothelium; 42 μg LAT-A topical, 14 days",75 ± 108 cell per square millimeter
same,"Cell count Exp/BL, drug eye","corneal endothelium; 42 μg LAT-A topical, 14 days",0.98 ± 0.02
same,"Cell count Exp/BL, drug/Vehicle","corneal endothelium; 42 μg LAT-A topical, 14 days",0.95 ± 0.03
same,"Cell count Exp/BL, drug−Vehicle","corneal endothelium; 42 μg LAT-A topical, 14 days",−0.05 ± 0.03
same,corneal endothelial cell borders,living monkey eyes [3],indistinct
